How the values were obtained:
[1] = tested on: guinea-pig isolated taenia coli; assay: Test B: inhibition of the relaxant response to endothelin-1 in isolated tissue; format: cell-based; details: antagonism of endothelin-1 relaxation, pA2 from concentration ratio
Protocol: The endothelin receptor antagonist activity of compounds of formula I may be assessed in vitro in isolated tissues by their ability to inhibit the relaxant response to endothelin-1 in the guinea-pig isolated taenia coli. Guinea pigs of either sex and weight >250 g are killed by cervical dislocation and the caecum removed and placed in cold oxygenated Krebs solution. Strips of Taenia coli are dissected out and approximately 4 cm lengths set up for isotonic recording in a 20 ml organ bath containing oxygenated Krebs solution at 32° C. After a 90-120 minute equilibration period to allow the tissue to spontaneously develop an increased tone, a cumulative concentration-response curve (relaxation) is constructed to endothelin-1 (0.3-10 nM). The tissue is then washed for a period of at least 90 minutes before construction of a second concentration-response curve to endothelin-1 in the presence of the test compound. The test compound is added to the organ bath (at an initial concentration of 20 μM) at least 30 minutes before constructing the second concentration-response curve to endothelin-1. The endothelin-1 concentration ratio for each experiment is determined by comparing the most parallel portions of the control and drug treated concentration-response curves. From this a pA2 is calculated: pA2 =-log[molar drug concentration]+log[concentration ratio-1].

[2] = tested on: Human ETA or ETB receptors; assay: Test A: inhibition of [125I]-Endothelin-1 binding to MEL cell membranes expressing recombinant receptor; details: [125I]-Endothelin-1 30 pM, receptor subtype (ETA or ETB) not stated
Source text: The endothelin receptor antagonist activity of compounds of formula I may be assessed in vitro by their ability to inhibit binding of [^125 I]-Endothelin-1 to its receptors. Human ETA or ETB receptors (sub-types of the endothelin receptor) were expressed in Mouse Erythroleukemic Cells (MEL cells) by using standard molecular techniques (for example, as described by Sambrook J., Fritsch E. F. & Maniatis T. (1989) Molecular Cloning: A Laboratory Manual, 2nd Edition, Cold Spring Harbor Press, U.S.A.). cDNA sequences encoding the human ETA and ETB receptor (Hosoda K. et al (1991), FEBS Lett., 287, 23-26 and Sakamoto A. et al, (1991), Biochem. Biophys Res. Comm., 178, 656-663) are subcloned into pBluescript vector followed by insertion into the MEL cell expression vector pEV as described by Needham et al (1992), Nuc. Acids Res., 20, 997-1003. […]
[^125 I]-Endothelin-1 binding to MEL cell membranes was measured in incubation buffer containing 50 mM Tris HCl, 1 mM CaCl2, 0.05% polyoxyethylenesorbitan monolaurate, 0.1% Bovine Serum Albumin (BSA), 0.02% sodium azide pH 7.4 at 30° C. after 180 minutes incubation. […] Nonspecific binding was measured in the presence of 100 nM unlabelled Endothelin-1. […] The filter discs were punched out and counted in a gamma counter. Compounds are tested in triplicate over a range of concentrations and IC50 (or pIC50) values calculated.

Compound: CN(C)c1cccc2c(S(=O)(=O)Nc3ccc(Cl)nn3)cccc12 [Example 1, 5-(dimethylamino)-N-(6-chloro-3-pyridazinyl)-1-naphthalenesulphonamide]
- pA2 in test B [1]: 6.8
- pIC50 in test A [2]: 6.7

— patent US6083951A, “Aryl-substituted pyrimidine sulphonamide compounds as endothelin antagonists” (Zeneca Limited, priority 1994, dated 2000)
